This is an account of results in PMC5839262, “Inhibitors of bacterial protease enzymes for periodontal therapy” (Clinical and Experimental Dental Research, 2015).

Data set [1] deals with Kgp (Porphyromonas gingivalis, UniProt B2RLK2). The data set is described as follows: Kgp gingipain activity, fluorescent assay with Boc‐VLK‐AMC in Pg cell suspensions. The format is biochemical. As for the experimental part:
(§1) To obtain culture media for measuring secreted gingipain activity, we removed bacteria by centrifugation followed by filtration through 0.2‐µm filters, and we supplemented the medium with 0.2 mM PMSF to block any serine‐protease activity. To measure cell‐associated activity, we resuspended bacteria to an optical density of 4.0 at 600 nm (4 × 10^9 CFU/mL) in DPBS, and PMSF was added. Portions of the media and bacterial suspensions were frozen in liquid nitrogen and stored at −80°C.
(§2) The gingipain assay was adapted from procedures of Chen et al. (2001) and Suwannakul et al. (2010). To measure activity of Rgp or Kgp, respectively, we incubated various volumes of media or bacterial suspensions 10 min at 37°C in DPBS with 1 mM L‐cysteine to ensure that the gingipain active‐site cysteine was in the reduced, active form, and then we added the substrate benzoyl‐R‐AMC or Boc‐VLK‐AMC to give 0.2 mM substrate in a final volume of 0.1 mL. The incubation was continued 15 min at 37°C in black multiwell plates. Incubations were stopped by adding 50 μL of 1.5 mM TLCK, an irreversible inhibitor of serine and cysteine proteases. Fluorescence was measured with a fluorescence plate reader (SpectraMax Gemini EM, Molecular Devices, Sunnyvale, CA) with excitation at 365 nm and emission at 460 nm to measure hydrolysis of the substrate and release of the fluorescent product.
(§3) To measure effects of inhibitors on Rgp or Kgp activity, we diluted conditioned media fivefold or bacterial suspensions fiftyfold with DPBS, and we selected a diluted sample volume of 20 μL or less that gave a strong fluorescent signal, and we incubated the sample 15 min in DPBS with 0.2 mM substrate and various levels of protease inhibitors.

For data set [2], the system named is Rgp. The data set is described as follows: Rgp gingipain activity, fluorescent assay with benzoyl‐R‐AMC in Pg cell suspensions. Type of data set: biochemical, Porphyromonas gingivalis. The note with it: for effect on Rgp activity: concentrations up to 1 × 10^−4 M, results not shown; for IC50: 0.2 mM benzoyl‐R‐AMC, 15 min, read-out: concentration causing 50% inhibition of Rgp activity. The protocol: as §1, §2, §3

Data set [3] has as its system cathepsin B. Also noted: method as in McConnell et al., 1993. The note with it: ref McConnell et al., 1993; cited from earlier work.
For data set [4], the system named is Pg. The data set is described as follows: Bactericidal activity, LIVE/DEAD BacLight viability assay. The conditions noted are these: 1 h; for bactericidal activity: both Pg strains, concentrations up to 1 × 10^−4 M. The format is cell-based, Porphyromonas gingivalis. As for the experimental part: Pg bacteria were collected by centrifugation and diluted to 2 × 10^8 CFU/mL in isotonic saline at 25°C. Pg (10^8 CFU/mL) were then incubated with various concentrations of protease inhibitors at 37°C with gentle mixing in 0.1 mL incubation mixtures in black multiwell plates inside AnaeroGen™ Compact pouches (Oxoid Corporation, Nepean, ON, Canada) to lower the oxygen (O2) concentration. After 1 h, the number of live bacteria per milliliter was measured with a LIVE/DEAD BacLight™ Bacterial Viability kit (Invitrogen, Inc., Carlsbad, CA). The assay determines the number of live bacteria based on entry of the fluorescent dyes SYTO 9 and propidium iodide into the bacteria. SYTO 9 enters both live and dead bacteria and binds to DNA, giving a green fluorescence. Propidium iodide enters only dead bacteria and binds to DNA, giving a red fluorescence. A 0.1 mL portion of 2× BacLight dye mixture was added to the bacteria in the wells, and the plate was incubated 15 min at 37°C in an AnaeroGen™ pouch in the dark. Immediately following removal of the plate from the pouch, fluorescence was measured in a fluorescence plate reader with excitation at 485 nm. Green fluorescence of SYTO 9 was measured at 538 nm, and red fluorescence of propidium iodide was measured at 612 nm. Standard curves were prepared with various ratios of live and dead bacteria, and the number of live bacteria was determined from the ratio of green to red fluorescence. Control experiments were performed in which Pg viability was measured by diluting, plating on blood agar plates, and counting colonies after 1 to 2 weeks at 37°C under anaerobic conditions to confirm that the plating and fluorescent assays provided similar results. Toxicity of the protease inhibitors to E. coli was also measured. Assay conditions were the same as for Pg except that incubations were in air.

The subject of data set [5] is cultured human cells. Details: method as in Kadowaki et al., 2004; Kataoka et al., 2014. The conditions noted are these: ref Kadowaki et al., 2004; Kataoka et al., 2014; cited from earlier work.
A short description of data set [6]: Water solubility. Type of data set: physicochemical. The conditions noted are these: stated in discussion.
The subject of data set [7] is E. coli. The data set is described as follows: Bactericidal activity, LIVE/DEAD BacLight viability assay. The format is cell-based, Escherichia coli. The conditions noted are these: 1 h. As for the experimental part: Escherichia coli strain 43827 was purchased from the American Type Culture Collection and grown in TSB overnight with shaking in air at 37°C. Suspensions were serially diluted in saline and plated on TSB agar to determine CFU per milliliter.
Pg bacteria were collected by centrifugation and diluted to 2 × 10^8 CFU/mL in isotonic saline at 25°C. Pg (10^8 CFU/mL) were then incubated with various concentrations of protease inhibitors at 37°C with gentle mixing in 0.1 mL incubation mixtures in black multiwell plates inside AnaeroGen™ Compact pouches (Oxoid Corporation, Nepean, ON, Canada) to lower the oxygen (O2) concentration. After 1 h, the number of live bacteria per milliliter was measured with a LIVE/DEAD BacLight™ Bacterial Viability kit (Invitrogen, Inc., Carlsbad, CA). […] SYTO 9 enters both live and dead bacteria and binds to DNA, giving a green fluorescence. Propidium iodide enters only dead bacteria and binds to DNA, giving a red fluorescence. […] Immediately following removal of the plate from the pouch, fluorescence was measured in a fluorescence plate reader with excitation at 485 nm. Green fluorescence of SYTO 9 was measured at 538 nm, and red fluorescence of propidium iodide was measured at 612 nm. Standard curves were prepared with various ratios of live and dead bacteria, and the number of live bacteria was determined from the ratio of green to red fluorescence. […]

Like-named read-outs stand apart in the source and are kept apart here. Where a SMILES comes first, the peptide text is derived from it.

Turning to `CC(=O)N[C@@H](CC(C)C)C(=O)N[C@H](C(=O)N[C@H](C=O)CCCCN)C(C)C` [cathepsin B inhibitor II, Ac‐Leu‐Val‐Lys‐aldehyde] (Ac-Leu-Val-Lys-aldehyde), in data set [1], the IC50 stood at 50 nM. Also, the “effect on Rgp activity” value in data set [2] is “no effect”. Also, the “effectiveness as inhibitor of cathepsin B relative to leupeptin” value in data set [3] is roughly 100 times.

On to `CN(NC(=O)CC[C@H](NC(=O)OCc1ccccc1)C(=O)N[C@@H](CCCCN)C(=O)C(=O)NCc1ccccc1)c1ccccc1` [KYT‐36, carbobenzoxy‐Glu(NHN(CH3)Ph)‐Lys‐CO‐NHCH2Ph], for which, in data set [4], the bactericidal activity entry is “not bactericidal”. The “toxicity to cultured human cells” value in data set [5] is reported as “non‐toxic”. This compound also displayed an IC50 in data set [1] of 1 nM. For the same compound, the water solubility entry in data set [6] was “water soluble”. Also, the “effect on Rgp activity” value in data set [2] was “did not inhibit Rgp”.

For the compound `CC(=O)N[C@@H](CC(C)C)C(=O)N[C@@H](CC(C)C)C(=O)N[C@H](C=O)CCCNC(=N)N` [leupeptin, Ac‐Leu‐Leu‐Arg‐aldehyde], the “effect on Kgp activity” value in data set [1] (concentrations up to 1 × 10^−4 M, results not shown) is recorded as “no effect”. Also, the IC50 in data set [2] (Pg 33277 cell suspensions) was 20 nM.

With `CC(C)C[C@H](NC(=O)[C@H]1O[C@@H]1C(=O)O)C(=O)NCCCCN=C(N)N` (relative stereo) [E64, trans‐epoxysuccinyl‐L‐leucylamido‐(4‐guanidino)butane], the “effect on Kgp activity” value in data set [1] (any concentration tested, Pg 33277 cell suspensions) was “no effect”. For the same compound, in data set [2] (Pg 33277 cell suspensions), the “concentration causing 90% inhibition of Rgp activity” value was 1 mM and the IC50 was 50000 nM.

As for `CN(C)C(=O)[C@H](CCCCN)NC(=O)C(=O)[C@H](CCCNC(=N)N)NC(=O)[C@H](CCCCN)NC(=O)OCc1ccccc1` [KYT‐1, carbobenzoxy‐Lys‐Arg‐CO‐Lys‐N(CH3)2], the bactericidal activity result in data set [4] is listed as “not bactericidal”. Also, the “toxicity to cultured human cells” value in data set [5] is recorded as “non‐toxic”. Moreover, the IC50 worked out at 20000 nM in data set [1] and 2 nM in data set [2] (Pg 33277 cell suspensions). In addition, the water solubility entry in data set [6] was “water soluble”. In addition, the “difference in concentrations causing 50% inhibition of Rgp and Kgp” value in data set [2] (Rgp versus Kgp, cell suspensions) is recorded as 10,000 fold.

Consider `NC(N)=NCCC[C@H](NC(=O)[C@@H]1CCCN1C(=O)[C@H](N)Cc1ccccc1)C(=O)CCl` [PPACK, D‐Phe‐Pro‐Arg‐chloromethylketone], for which the IC50 in data set [1] (Pg 33277 cell suspensions, 0.2 mM Boc‐VLK‐AMC, 15 min, read-out: concentration causing 50% inhibition of Kgp activity) was determined as 20 nM; in data set [2] (Pg 33277 cell suspensions) it was 2 nM.

`Cc1cc(C)c(C(=O)OCC(=O)[C@H](CCCCN)NC(=O)[C@H](Cc2ccccc2)NC(=O)OCc2ccccc2)c(C)c1` [Z‐FK‐ck, Z‐Phe‐Lys‐2,4,6‐trimethylbenzoyloxy‐methylketone]: the “concentration causing 50% loss of viability” value was 30 µM in data set [4] (Pg 10^8 CFU/mL, 37°C, low oxygen) and 30 µM in data set [7] (37°C, in air). Further, the bactericidal activity result in data set [4] and in data set [7] (concentrations up to 1 × 10^−4 M) was “significant bactericidal activity” each time. The IC50 is 0.5 nM in data set [1] and 2000 nM in data set [2] (Pg 33277 cell suspensions).
